The text below walks through data of patent US11779628B2, “Use of cell-permeable peptide inhibitors of the JNK signal transduction pathway for the treatment of various diseases” (Xigen Inflammation Ltd., priority 2014, dated 2023).

Data set [1] relates to Primary cultured macrophages. It counts as cell-based. The method, then:
FIG. 24 Primary cultured macrophages were incubated with XG-102 (SEQ ID NO: 11) and extensively washed.

A short description of data set [2]: Phase I pharmacokinetics after single iv infusion. Conditions: human, in vivo. The procedure:
The primary objective of the study was to assess the safety and tolerability of XG-102 following intravenous (iv) infusion of single escalating doses of XG-102 to healthy male volunteers. The secondary objective of the study was to assess the pharmacokinetics of XG-102 following iv infusion of single escalating doses of XG-102 to healthy male volunteers. Doses were administered as a 60 minute iv infusion. For control purposes, placebo iv infusion was administered to control subjects. This was a single-centre, randomized, double blind, placebo controlled, ascending single dose, sequential group study. […] Screening was performed in the 3-week period prior to dosing. Dosing occurred on Day 0 for each subject. […] Data for all subjects were included in the safety analyses; data for all subjects who received XG-102 were included in the pharmacokinetic analyses.

The conditions of data set [3]: human, in vivo, 1 h.
Protocol: The quantification (plasma) of XG-102 in plasma was evaluated in a subset of 32 patients located in one site. A venous blood sample (2 ml) was obtained using a Li-Heparin tube 60 minutes after sub-conjunctival administration of study treatment. The exact time when the sample was performed was entered in the space provided on the e-CRF. The blood sample was centrifuged for 10 minutes at 2,500 RPM at room temperature. After centrifugation, using a pipette, the plasma was transferred to two 1.5 ml cryotubes. The cryotubes were then placed in a freezer at −80° C. and were then subsequently sent in dry ice with a temperature data logger to the central laboratory responsible for the analysis. Upon receipt at the central laboratory, the samples were stored at −80° C. until analyzed.
The subject of data set [4] is Wistar rats, PAN-induced nephropathy. Conditions: rat, in vivo. The source says: The aim of this study was to evaluate the effects of XG-102 on chronic puromycine aminonucleoside-induced nephropathy in rats during 56 days. Puromycin aminonucleoside (PAN) is a podocyte toxin inducing a loss and fusion of podocytes foot processes. PAN-induced nephropathy is a well-described model of human idiopathic […] syndrome and focal segmental glomerulosclerosis ([…], 2008). The glomerular morphologic changes seen in rats with PAN nephrosis closely resemble those in human minimal change disease (MCD) and focal segmental glomerulosclerosis (FSGS). Intraperitoneal administration of PAN in rats results in a rapid development of […] syndrome, characterized by proteinuria, hypoalbuminemia and hypercholesterolemia (acute phase). This is a well-established animal model of human MCD. […] The slides were stained by hematoxylin/eosin (HE), PAS-methenamine silver and Sirius Red for histological evaluation of morphological alterations, glomerulosclerosis and interstitial fibrosis quantification, respectively. […] Results are expressed by semi-quantitative scoring following to expert histopathologist evaluation. For the histological examination of glomerulosclerosis glomerular changes have been evaluated using a semi quantitative scoring system as described by […]. […] All data have been calculated as mean values±standard error of the mean (s.e.m.). […]

For the next data set, the system named is rats. Description: Ocular MTD studies, sub-conjunctival administration. It counts as in vivo, rat. The source says:
Despite technical advances in ocular surgery, the physical trauma of this procedure continues to induce post-operative ocular inflammation warranting treatment. In ocular tissue, arachidonic acid is metabolized by cyclooxygenase (COX) to prostaglandins (PG) which are the most important lipid-derived mediators of inflammation. Surgical trauma causes a trigger of the arachidonic acid cascade which in turn generates PGs by activation of COX-1 and COX-2. Phospholipids in the cell membrane are the substrate for phospholipase A to generate arachidonic acid from which a family of chemically distinct PGs and leukotriens are produced. The ‘golden standard’ for the treatment of ocular inflammation are topical corticosteroids and/or Non-Steroidal Anti-inflammatory Drugs (NSAIDs). Side effects reported with (short-term) corticosteroid use include cataract formation, increased Intra Ocular Pressure (IOP), increased susceptibility to viral infections and retardation of the corneal epithelial and stromal wound healing. In addition, prolonged treatment with corticosteroids have been known to induce systemic side effects such as glucose impairment, hypertension, development of glaucoma, visual acuity defects, loss of visual field, and posterior subcapsular cataract formation. […]

Take `CC(C)C[C@@H](NC(=O)[C@@H](Cc1ccccc1)NC(=O)[C@H]1CCCN1C(=O)[C@@H](CCC(N)=O)NC(=O)[C@H](NC(=O)[C@H]1CCCN1C(=O)[C@@H](CCCNC(=N)N)NC(=O)[C@@H](CO)NC(=O)[C@@H](CCC(N)=O)NC(=O)[C@H](N)CC(=O)O)C(C)C)C(=O)N[C@H](CC(N)=O)C(=O)N[C@H](CC(C)C)C(=O)N[C@@H](C(=O)N[C@@H](C(=O)N1CCC[C@@H]1C(=O)N[C@H](CCCNC(=N)N)C(=O)N[C@H](CCCCN)C(=O)N1CCC[C@@H]1C(=O)N[C@H](CCCNC(=N)N)C(=O)N1CCC[C@@H]1C(=O)N1CCC[C@@H]1C(=O)N[C@H](CCCNC(=N)N)C(=O)N[C@H](CCCNC(=N)N)C(=O)N[C@H](CCCNC(=N)N)C(=O)N[C@H](CCC(N)=O)C(=O)N[C@H](CCCNC(=N)N)C(=O)N[C@H](CCCNC(=N)N)C(=O)N[C@H](CCCCN)C(=O)N[C@H](CCCCN)C(=O)N[C@H](CCCNC(=N)N)C(=O)NCC(=O)O)[C@H](C)O)[C@H](C)O` [XG-102]: the incorporation into macrophages entry in data set [1] was “is strongly incorporated into primary macrophages”. For the same compound, the “dose proportionality of AUC0-last” value in data set [2] was “increases in a more than linear proportion with dose in the tested dose range”. For the same compound, the MRT in data set [2] (80 ug/kg) is 1.02 (14.7) h. Also, the “XG-102 concentration in plasma” value in data set [3] was under 10 ng/mL. In addition, the body weight entry in data set [4] is given as “no effects of XG-102 were observed”. Besides, the “No Observed Adverse Effect Level (NOAEL)” value with rats is recorded as “around 20 μg”.
